In patent US12226414B2, “1-isopropyl-3-methyl-8-(pyridin-3-yl)-1,3-dihydro-2H-imidazo[4,5-c] cinnolin-2-one as selective modulators of ataxia telangiectasia mutated (ATM) kinase and uses thereof” (SUZHOU ZANRONG PHARMA LIMITED, priority 2018, dated 2025):

What was measured:
mTOR = mTOR (Homo sapiens (Human), UniProt P42345); experiment: mTOR biochemical potency assay
Procedure: Solution of mTOR enzymes (Millipore, Cat. No. 14-770, Lot. No. 2052551) was prepared in 1× kinase buffer at 4-fold of the final concentration (final concentration: 6 nM) in the assay. 2.5 μl of kinase solution was added to each well of the 384-well assay plate, which contains 2.5 μl of compounds with serially diluted concentration. 2× substrate solution was prepared with ULight-4E-BP1 (Thr37/46) Peptide (PE, Cat. No. TRF0128-M, Lot. No. 1695274) and ATP in 1× kinase reaction buffer at 2-fold of the final concentration of each reagent in the assay. 5 μl of substrate solution was added to each well of the assay plate to start reaction. The assay plate was incubated at room temperature for 30 minutes. Detection solution of kinase quench buffer (EDTA) and Eu-anti-phospho-4E-BP1 antibody (Thr37/46) (PE, Cat. No. TRF0216-M, Lot. No. 1571838) were prepared at 2-fold the desired final concentrations of each reagent in Lance detection buffer. 10 μl of detection solution buffer was added to each well of the assay plate. The assay plate was equilibrated for 60 minutes at room temperature before read on a plate reader (Lance signal (665 nm) from Envision program).

ATR = ATR (Homo sapiens (Human), UniProt Q13535); experiment: ATR biochemical potency assay
Procedure: ATR enzyme was made by ChemPartner (batch: CP-ATR-20161102-M2). 2× enzyme solutions were prepared in 1× kinase base buffer. 10 μl of 2× enzyme solution (final concentration: 2.5 nM) was added to each well of the 384-well assay plate containing 60 nl compound in each well. The plate was incubated at room temperature for 10 minutes. 2× peptide solutions were prepared with FAM-labeled peptide and ATP in the 1× kinase base buffer. 10 μl of 2× peptide solution was added to each well of the 384-well assay plate, which was incubated at 28° C. for 240 min. 40 μl of stop buffer was added to stop reaction. Data were collected by Caliper.

[1] = target: ATM in SN38 treated HT-29 cells (Homo sapiens (Human), UniProt Q13315); experiment: ATM SN-38 HT-29 cellular potency assay
Procedure: Inhibition of ATM was evaluated in SN38 treated HT-29 cells (ATCC, Cat #HTB-38) by high-Content Imaging System
HT-29 cells were trypsinized and approximately 10,000 cells were seeded per well to 96-well microplates which were incubated overnight at 37° C. and 5% CO2. Test compounds were added to the 96-well plates which were incubated at 37° C. and 5% CO2 for 1 hour. […] After the plates were rinsed 3 times with PBSA, 50 μl permeabilization buffer (0.1% Triton-X 100 in PBSA) was added and the plates were incubated for 20 minutes at room temperature. After the plates were rinsed once with PBSA, 50 μl primary antibody solution was added and the plates were incubated in at 4° C. overnight. […] The plates were rinsed with PBST 3 times and then 100 μl PBSA were added per well. The plates were sealed with black plate seals.

PIK3Cβ (p110β) = PIK3Cβ (p110β) (Homo sapiens (Human), UniProt P42338); experiment: PI3K biochemical potency assay (PI3Kβ)
Procedure: (§1) PI3Kα (p110α/p85a), PIK3C δ, PIK3Cβ (p110β), PIK3Cγ (pp110γ) kinase reaction solutions of PI3Kα (Invitrogen, Cat. No. PV4788), PIK3Cδ (Invitrogen, Cat. No. PV6452), PIK3Cβ (Millipore, Cat. No. 14-603-K), PIK3Cγ (Invitrogen, Cat. No. PR8641C) enzymes were prepared in 1× kinase buffer at 4-fold of the final concentration (final concentration: PI3Kα 0.7 nM, PIK3Cδ 3 nM, PIK3Cβ 4.8 nM, PIK3Cγ 11 nM) of each reagent in the assay. 2.5 μl of kinase solution was added to each well of the 384-well assay plate, which contains 2.5 μl of compounds with serially diluted concentration. 2× substrate solution was prepared with PIP2 substrate and ATP in 1× kinase reaction buffer at 2-fold of the final concentration of each reagent in the assay. 5 μl of substrate solution was added to each well of the assay plate to start reaction. The assay plate was incubated at room temperature for 1 hour. 5 μl reaction mix was transferred to a new 384 well plate. 5 μl of ADP-Glo reagent (Promega, Cat. No. v9102/3, Lot. No. 0000176563) was added to each well of the new assay plate to stop the reaction. The plate was shaken slowly and equilibrated for 40 minutes. 10 μl kinase detection reagents was added to each well, which was equilibrated for 60 minutes before read on a plate reader (Envision) for luminescence.

PI3Kα (p110α/p85a) = PI3Kα (p110α/p85a) (Homo sapiens (Human), UniProt P42336); experiment: PI3K biochemical potency assay (PI3Kα)
Procedure: as §1

ATM = ATM (Homo sapiens (Human), UniProt Q13315); experiment: ATM biochemical potency assay
Procedure: The plate was incubated at room temperature for 10 minutes. […] Data was collected by Caliper.

PIK3Cδ = PIK3Cδ (Homo sapiens (Human), UniProt O00329); experiment: PI3K biochemical potency assay (PI3Kδ)
Procedure: as §1

PIK3Cγ (pp110γ) = PIK3Cγ (pp110γ) (Homo sapiens (Human), UniProt P48736); experiment: PI3K biochemical potency assay (PI3Kγ)
Procedure: as §1

[2] = cited from earlier work

Chain of PIK3Cγ (pp110γ) (P48736 whole entry): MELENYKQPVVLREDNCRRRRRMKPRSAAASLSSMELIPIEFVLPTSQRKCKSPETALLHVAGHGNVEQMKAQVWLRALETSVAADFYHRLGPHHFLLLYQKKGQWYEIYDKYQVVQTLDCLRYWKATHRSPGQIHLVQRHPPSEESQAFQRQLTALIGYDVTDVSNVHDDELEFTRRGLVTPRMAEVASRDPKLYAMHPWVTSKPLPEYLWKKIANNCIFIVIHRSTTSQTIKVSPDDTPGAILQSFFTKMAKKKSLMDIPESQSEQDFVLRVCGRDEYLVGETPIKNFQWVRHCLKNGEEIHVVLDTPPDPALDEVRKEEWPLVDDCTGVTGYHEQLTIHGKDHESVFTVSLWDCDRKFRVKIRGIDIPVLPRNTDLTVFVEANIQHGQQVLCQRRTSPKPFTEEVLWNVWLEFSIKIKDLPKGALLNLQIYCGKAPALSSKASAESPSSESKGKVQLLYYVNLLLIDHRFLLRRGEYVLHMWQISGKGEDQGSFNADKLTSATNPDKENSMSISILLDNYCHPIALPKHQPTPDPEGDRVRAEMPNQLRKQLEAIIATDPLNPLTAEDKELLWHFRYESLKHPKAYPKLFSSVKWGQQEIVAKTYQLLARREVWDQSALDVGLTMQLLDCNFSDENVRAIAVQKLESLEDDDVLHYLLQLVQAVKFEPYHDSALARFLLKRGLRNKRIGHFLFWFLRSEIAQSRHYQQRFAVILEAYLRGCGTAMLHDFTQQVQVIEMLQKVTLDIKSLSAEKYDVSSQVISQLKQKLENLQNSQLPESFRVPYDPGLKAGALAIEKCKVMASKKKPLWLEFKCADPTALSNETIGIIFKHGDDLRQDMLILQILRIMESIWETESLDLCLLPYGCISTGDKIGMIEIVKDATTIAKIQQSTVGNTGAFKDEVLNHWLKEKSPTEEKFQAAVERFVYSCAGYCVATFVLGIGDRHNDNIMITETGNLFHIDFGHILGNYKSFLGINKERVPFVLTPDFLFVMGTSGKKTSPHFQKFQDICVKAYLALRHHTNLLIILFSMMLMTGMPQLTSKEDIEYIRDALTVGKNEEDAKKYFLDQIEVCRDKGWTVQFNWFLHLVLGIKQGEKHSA
Chain of PIK3Cβ (p110β) (P42338 whole entry, looked up): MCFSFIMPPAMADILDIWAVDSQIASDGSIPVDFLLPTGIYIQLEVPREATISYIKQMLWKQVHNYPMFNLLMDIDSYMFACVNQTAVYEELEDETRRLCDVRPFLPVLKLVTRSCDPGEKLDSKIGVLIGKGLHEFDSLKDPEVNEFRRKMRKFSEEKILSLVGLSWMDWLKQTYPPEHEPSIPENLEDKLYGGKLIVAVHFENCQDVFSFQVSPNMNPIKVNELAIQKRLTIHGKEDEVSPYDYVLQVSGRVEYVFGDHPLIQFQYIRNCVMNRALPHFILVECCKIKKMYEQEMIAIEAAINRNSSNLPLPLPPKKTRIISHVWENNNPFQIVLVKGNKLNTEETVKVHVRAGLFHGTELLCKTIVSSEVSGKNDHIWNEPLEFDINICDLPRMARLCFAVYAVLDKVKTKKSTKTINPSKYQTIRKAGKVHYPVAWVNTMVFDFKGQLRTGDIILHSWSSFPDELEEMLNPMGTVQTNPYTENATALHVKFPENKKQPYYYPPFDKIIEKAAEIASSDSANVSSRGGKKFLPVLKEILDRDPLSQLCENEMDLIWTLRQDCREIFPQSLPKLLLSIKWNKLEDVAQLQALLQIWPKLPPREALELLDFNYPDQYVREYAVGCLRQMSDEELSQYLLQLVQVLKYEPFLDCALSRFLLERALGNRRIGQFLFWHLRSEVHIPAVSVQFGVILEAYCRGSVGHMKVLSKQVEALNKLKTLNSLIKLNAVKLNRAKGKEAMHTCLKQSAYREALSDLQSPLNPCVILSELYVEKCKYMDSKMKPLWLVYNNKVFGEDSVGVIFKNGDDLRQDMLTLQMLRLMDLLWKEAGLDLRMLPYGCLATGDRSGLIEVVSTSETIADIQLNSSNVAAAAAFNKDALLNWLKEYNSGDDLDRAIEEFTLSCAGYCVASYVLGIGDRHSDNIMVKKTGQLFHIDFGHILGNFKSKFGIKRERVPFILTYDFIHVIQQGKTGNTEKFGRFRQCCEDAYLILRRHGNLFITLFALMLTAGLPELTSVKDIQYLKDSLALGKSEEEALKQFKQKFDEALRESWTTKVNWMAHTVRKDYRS
Chain of PIK3Cβ (p110β) (P27986 whole entry partner, looked up): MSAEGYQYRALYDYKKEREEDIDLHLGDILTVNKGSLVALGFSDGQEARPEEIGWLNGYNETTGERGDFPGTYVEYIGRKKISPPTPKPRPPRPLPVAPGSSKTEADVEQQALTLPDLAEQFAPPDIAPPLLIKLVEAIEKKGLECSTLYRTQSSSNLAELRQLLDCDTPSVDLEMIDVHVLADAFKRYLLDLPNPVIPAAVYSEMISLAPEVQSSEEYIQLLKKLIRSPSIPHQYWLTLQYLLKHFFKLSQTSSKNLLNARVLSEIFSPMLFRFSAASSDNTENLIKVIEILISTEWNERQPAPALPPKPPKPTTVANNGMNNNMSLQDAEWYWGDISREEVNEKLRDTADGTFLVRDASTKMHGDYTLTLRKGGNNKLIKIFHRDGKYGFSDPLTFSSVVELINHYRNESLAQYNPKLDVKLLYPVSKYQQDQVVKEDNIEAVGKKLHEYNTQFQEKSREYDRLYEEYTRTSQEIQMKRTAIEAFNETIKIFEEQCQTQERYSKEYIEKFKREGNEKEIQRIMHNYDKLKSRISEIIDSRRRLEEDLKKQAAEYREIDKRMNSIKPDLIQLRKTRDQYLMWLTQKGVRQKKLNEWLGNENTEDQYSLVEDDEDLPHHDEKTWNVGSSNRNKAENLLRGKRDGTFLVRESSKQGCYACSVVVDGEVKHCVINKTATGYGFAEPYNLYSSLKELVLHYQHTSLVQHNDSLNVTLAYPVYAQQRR
Chain of PIK3Cδ (O00329 whole entry, looked up): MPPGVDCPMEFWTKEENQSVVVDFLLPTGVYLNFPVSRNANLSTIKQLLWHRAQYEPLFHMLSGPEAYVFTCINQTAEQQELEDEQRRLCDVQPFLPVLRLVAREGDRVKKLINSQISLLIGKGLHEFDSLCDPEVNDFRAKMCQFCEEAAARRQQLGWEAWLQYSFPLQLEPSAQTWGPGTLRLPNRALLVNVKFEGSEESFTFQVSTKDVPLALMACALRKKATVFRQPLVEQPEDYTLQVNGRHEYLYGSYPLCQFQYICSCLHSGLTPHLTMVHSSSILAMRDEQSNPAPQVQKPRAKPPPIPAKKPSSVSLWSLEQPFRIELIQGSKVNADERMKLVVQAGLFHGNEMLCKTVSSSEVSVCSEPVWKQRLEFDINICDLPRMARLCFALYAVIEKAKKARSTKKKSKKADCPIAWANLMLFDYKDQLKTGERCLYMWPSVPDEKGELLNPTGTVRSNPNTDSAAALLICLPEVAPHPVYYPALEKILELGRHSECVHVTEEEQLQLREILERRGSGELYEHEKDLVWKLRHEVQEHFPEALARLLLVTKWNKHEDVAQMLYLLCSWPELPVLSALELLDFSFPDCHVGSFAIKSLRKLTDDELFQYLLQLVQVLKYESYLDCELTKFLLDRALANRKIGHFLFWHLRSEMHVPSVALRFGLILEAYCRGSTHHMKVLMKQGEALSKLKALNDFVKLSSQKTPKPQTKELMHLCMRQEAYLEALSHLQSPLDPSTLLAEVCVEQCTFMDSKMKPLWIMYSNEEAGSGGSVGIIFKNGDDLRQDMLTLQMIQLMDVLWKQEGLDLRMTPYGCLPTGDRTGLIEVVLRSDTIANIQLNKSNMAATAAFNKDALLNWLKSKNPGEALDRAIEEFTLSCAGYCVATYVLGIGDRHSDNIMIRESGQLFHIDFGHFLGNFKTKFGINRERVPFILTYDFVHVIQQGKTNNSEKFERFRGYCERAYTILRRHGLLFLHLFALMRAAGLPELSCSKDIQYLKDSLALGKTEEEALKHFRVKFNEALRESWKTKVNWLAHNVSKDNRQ
Chain of PIK3Cδ (P27986 whole entry partner, looked up): as the sequence (P27986 whole entry partner, looked up) above
Chain of PI3Kα (p110α/p85a) (P42336 whole entry, looked up): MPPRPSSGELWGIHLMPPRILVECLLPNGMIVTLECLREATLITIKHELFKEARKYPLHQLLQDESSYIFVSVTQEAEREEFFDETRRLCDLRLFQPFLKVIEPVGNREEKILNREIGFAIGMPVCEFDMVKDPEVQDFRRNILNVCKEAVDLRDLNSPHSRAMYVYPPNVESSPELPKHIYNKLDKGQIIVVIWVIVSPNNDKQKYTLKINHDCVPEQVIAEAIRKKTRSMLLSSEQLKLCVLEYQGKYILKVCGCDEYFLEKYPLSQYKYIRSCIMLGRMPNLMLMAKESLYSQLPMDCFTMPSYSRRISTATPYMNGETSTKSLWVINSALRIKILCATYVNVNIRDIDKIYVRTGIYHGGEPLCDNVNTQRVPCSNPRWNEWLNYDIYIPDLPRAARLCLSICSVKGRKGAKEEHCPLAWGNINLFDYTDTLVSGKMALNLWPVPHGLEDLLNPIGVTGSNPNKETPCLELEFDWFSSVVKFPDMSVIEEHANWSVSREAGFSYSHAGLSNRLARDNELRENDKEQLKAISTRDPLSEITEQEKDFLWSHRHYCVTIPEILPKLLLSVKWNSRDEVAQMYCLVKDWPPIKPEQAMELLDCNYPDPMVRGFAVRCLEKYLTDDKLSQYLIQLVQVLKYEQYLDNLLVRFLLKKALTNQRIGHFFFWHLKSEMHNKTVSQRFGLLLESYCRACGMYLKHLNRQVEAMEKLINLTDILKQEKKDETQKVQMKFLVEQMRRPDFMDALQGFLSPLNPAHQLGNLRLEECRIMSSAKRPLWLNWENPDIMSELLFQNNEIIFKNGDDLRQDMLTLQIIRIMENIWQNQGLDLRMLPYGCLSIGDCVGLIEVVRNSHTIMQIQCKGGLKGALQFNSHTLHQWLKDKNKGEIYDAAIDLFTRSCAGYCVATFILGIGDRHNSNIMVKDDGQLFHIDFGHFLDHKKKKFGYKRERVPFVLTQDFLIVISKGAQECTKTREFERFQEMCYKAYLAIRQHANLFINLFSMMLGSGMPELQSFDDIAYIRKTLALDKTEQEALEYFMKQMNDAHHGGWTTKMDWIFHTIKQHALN
Chain of PI3Kα (p110α/p85a) (P27986 whole entry partner, looked up): as the sequence (P27986 whole entry partner, looked up) above

IC50 (mTOR) [µM] | IC50 (ATR) [µM] | IC50 [1] [µM] | IC50 (PIK3Cβ (p110β)) [µM] | IC50 (PI3Kα (p110α/p85a)) [µM] | IC50 (ATM) [µM] | IC50 (PIK3Cδ) [µM] | IC50 (PIK3Cγ (pp110γ)) [µM] | Compound | clearance in humans [2] [mL/min/kg] | clearance as % liver blood flow ([2]; humans) [% liver blood flow]
> 10 | > 10 | 0.0015 | > 10 | > 10 | 0.0019 | > 10 | > 10 | CC(C)n1c(=O)n(C)c2nnc3cc(F)c(-c4ccc(OCCCN5CCCCC5)nc4)cc3c21 [Example 1, 7-fluoro-1-isopropyl-3-methyl-8-(6-(3-(piperidin-1-yl)propoxy)pyridin-3-yl)-1H-imidazo[4,5-c]cinnolin-2(3H)-one] | – | –
> 10 | > 10 | 0.27 | > 10 | > 10 | 0.0043 | > 10 | > 10 | CC(C)n1c(=O)n(C)c2nnc3cc(F)c(-c4ccc(OCCCN(C)C)nc4)cc3c21 [Example 2, 8-(6-(3-(dimethylamino)propoxy)pyridin-3-yl)-7-fluoro-1-isopropyl-3-methyl-1H-imidazo[4,5-c]cinnolin-2(3H)-one] | – | –
> 10 | > 10 | – | > 10 | > 10 | 0.01 | > 10 | > 10 | CC(C)n1c(=O)n(C)c2nnc3cc(F)c(-c4ccc(N5CCC(N(C)C)CC5)nc4)cc3c21 [Example 4, 8-(6-(4-(dimethylamino)piperidin-1-yl)pyridin-3-yl)-7-fluoro-1-isopropyl-3-methyl-1H-imidazo[4,5-c]cinnolin-2(3H)-one] | – | –
> 10 | > 10 | – | > 10 | > 10 | 0.065 | > 10 | > 10 | CC(C)n1c(=O)n(C)c2nnc3cc(F)c(-c4ccc(N5CCC(CN(C)C)C5)nc4)cc3c21 (centres unmarked) [Example 5, 8-(6-(3-((dimethylamino)methyl)pyrrolidin-1-yl)pyridin-3-yl)-7-fluoro-1-isopropyl-3-methyl-1H-imidazo[4,5-c]cinnolin-2(3H)-one] | – | –
> 10 | > 10 | 0.071 | > 10 | > 10 | 0.1 | > 10 | > 10 | CC(C)n1c(=O)n(C)c2nnc3cc(F)c(-c4ccc(COCCN(C)C)nc4)cc3c21 [Example 6, 8-(6-((2-(dimethylamino)ethoxy)methyl)pyridin-3-yl)-7-fluoro-1-isopropyl-3-methyl-1H-imidazo[4,5-c]cinnolin-2(3H)-one] | – | –
> 10 | > 10 | 0.274 | > 10 | > 10 | 0.026 | > 10 | > 10 | CC(C)n1c(=O)n(C)c2nnc3cc(F)c(-c4ccc(COCCN5CCCCC5)nc4)cc3c21 [Example 7, 7-fluoro-1-isopropyl-3-methyl-8-(6-((2-(piperidin-1-yl)ethoxy)methyl)pyridin-3-yl)-1H-imidazo[4,5-c]cinnolin-2(3H)-one] | – | –
> 10 | > 10 | – | > 10 | > 10 | 0.051 | > 10 | > 10 | CC(C)n1c(=O)n(C)c2nnc3cc(F)c(-c4ccc(COCCN5CCCC5)nc4)cc3c21 [Example 8, 7-fluoro-1-isopropyl-3-methyl-8-(6-((2-(pyrrolidin-1-yl)ethoxy)methyl)pyridin-3-yl)-1H-imidazo[4,5-c]cinnolin-2(3H)-one] | – | –
> 10 | > 10 | – | > 10 | > 10 | 0.035 | > 10 | > 10 | CC(C)n1c(=O)n(C)c2nnc3cc(F)c(-c4ccc(COCCN5CC[C@@H](F)C5)nc4)cc3c21 [Example 9, (R)-7-fluoro-8-(6-((2-(3-fluoropyrrolidin-1-yl)ethoxy)methyl)pyridin-3-yl)-1-isopropyl-3-methyl-1H-imidazo[4,5-c]cinnolin-2(3H)-one] | – | –
> 10 | > 10 | – | > 10 | > 10 | 0.363 | > 10 | > 10 | CC(C)n1c(=O)n(C)c2nnc3cc(F)c(-c4ccc(C(=O)NCCN(C)C)nc4)cc3c21 [Example 12, N-(2-(dimethylamino)ethyl)-5-(7-fluoro-1-isopropyl-3-methyl-2-oxo-2,3-dihydro-1H-imidazo[4,5-c]cinnolin-8-yl)picolinamide] | – | –
> 10 | > 10 | 0.027 | > 10 | > 10 | > 1 | > 10 | > 10 | CC(C)n1c(=O)n(C)c2nnc3cc(F)c(-c4ccc(OCCCN5CCC(F)CC5)nc4)cc3c21 [Example 13, 7-fluoro-8-(6-(3-(4-fluoropiperidin-1-yl)propoxy)pyridin-3-yl)-1-isopropyl-3-methyl-1H-imidazo[4,5-c]cinnolin-2(3H)-one] | – | –
> 10 | > 10 | 0.0185 | > 10 | > 10 | > 1 | > 10 | > 10 | CC(C)n1c(=O)n(C)c2nnc3cc(F)c(-c4ccc(OCCCN5CC6CC6C5)nc4)cc3c21 (centres unmarked) [Example 16, 8-(6-(3-(3-azabicyclo[3.1.0]hexan-3-yl)propoxy)pyridin-3-yl)-7-fluoro-1-isopropyl-3-methyl-1H-imidazo[4,5-c]cinnolin-2(3H)-one] | – | –
– | – | – | – | – | – | – | – | OCCn1cc(-c2cnc3nnn(Cc4ccc5ncccc5c4)c3n2)cn1 [Ref. Comp. 5, 2-[4-[3-(quinolin-6-ylmethyl)triazolo[4,5-b]pyrazin-5-yl]pyrazol-1-yl]ethanol] | 6 | ~30

Compound | IC50 (mTOR) [µM] | IC50 (ATR) [µM] | IC50 [1] [µM] | IC50 (PIK3Cβ (p110β)) [µM] | IC50 (PI3Kα (p110α/p85a)) [µM] | IC50 (ATM) [µM] | IC50 (PIK3Cδ) [µM] | IC50 (PIK3Cγ (pp110γ)) [µM] | clearance in humans [2] [mL/min/kg] | clearance as % liver blood flow ([2]; humans) [% liver blood flow]
CC(C)n1c(=O)n(C)c2nnc3cc(F)c(-c4ccc(OCCCN5CCCC5)nc4)cc3c21 [Example 3, 7-fluoro-1-isopropyl-3-methyl-8-(6-(3-(pyrrolidin-1-yl)propoxy)pyridin-3-yl)-1H-imidazo[4,5-c]cinnolin-2(3H)-one] | > 10 | > 10 | 0.011 | > 10 | > 10 | 0.0048 | > 10 | > 10 | – | –
CC(C)n1c(=O)n(C)c2nnc3cc(F)c(-c4ccc(COCCN5CCC(F)CC5)nc4)cc3c21 [Example 10, 7-fluoro-8-(6-((2-(4-fluoropiperidin-1-yl)ethoxy)methyl)pyridin-3-yl)-1-isopropyl-3-methyl-1H-imidazo[4,5-c]cinnolin-2(3H)-one] | > 10 | > 10 | – | > 10 | > 10 | – | > 10 | > 10 | – | –
CC(C)n1c(=O)n(C)c2nnc3cc(F)c(-c4ccc(COCCN5CC6CC6C5)nc4)cc3c21 (centres unmarked) [Example 11, 8-(6-((2-(3-azabicyclo[3.1.0]hexan-3-yl)ethoxy)methyl)pyridin-3-yl)-7-fluoro-1-isopropyl-3-methyl-1H-imidazo[4,5-c]cinnolin-2(3H)-one] | > 10 | > 10 | 0.018 | > 10 | > 10 | 0.037 | > 10 | > 10 | – | –
